Drawing on patent US9688699B2, “3-(pyrimidine-2-yl)imidazo[1,2-a]pyridines” (Bayer Pharma Aktiengesellschaft, priority 2014, dated 2017), this text covers IC50 and MEC for 15 molecules.

pIC50: −log10 of the molar value. Counter-ions that a name gives are not always drawn.

Assay [1] deals with T1, human phosphodiesterase 5 (PDE 5) (Homo sapiens, UniProt O76074).
T1 construct: PDE 5 preparations are obtained from human platelets by disruption; from tissue; host or cells: human platelets (Mono Q ion exchange fractions with PDE 5 activity)
The experiment in a line: Inhibition of human phosphodiesterase 5 (PDE 5) (B-3). The assay is classed as biochemical. The conditions noted are these: PDE 5 preparation from human platelets; [8-3H] cGMP substrate, SPA; in some cases means of individual determinations. How it is done:
B-3. Inhibition of Human Phosphodiesterase 5 (PDE 5)
PDE 5 preparations are obtained from human platelets by disruption (Microfluidizer®, 800 bar, 3 passes), followed by centrifugation (75 000 g, 60 min, 4° C.) and ion exchange chromatography of the supernatant on a Mono Q 10/10 column (linear sodium chloride gradient, elution with a 0.2-0.3M solution of sodium chloride in buffer (20 mM Hepes pH 7.2, 2 mM magnesium chloride). Fractions having PDE 5 activity are combined (PDE 5 preparation) and stored at −80° C.
To determine their in vitro action on human PDE 5, the test substances are dissolved in 100% DMSO and serially diluted. Typically, dilution series (1:3) from 200 μM to 0.091 μM are prepared (resulting final concentrations in the test: 4 μM to 0.0018 μM). In each case 2 μl of the diluted substance solutions are placed into the wells of microtitre plates (Isoplate-96/200 W; Perkin Elmer). Subsequently, 50 μl of a dilution of the above-described PDE 5 preparation are added. The dilution of the PDE 5 preparation is chosen such that during the later incubation less than 70% of the substrate are converted (typical dilution: 1:100; dilution buffer: 50 mM tris/hydrochloric acid pH 7.5, 8.3 mM magnesium chloride, 1.7 mM EDTA, 0.2% BSA). The substrate, [8-^3H] cyclic guanosine-3′,5′-monophosphate (1 μCi/μl; Perkin Elmer), is diluted 1:2000 with assay buffer (50 mM tris/hydrochloric acid pH 7.5, 8.3 mM magnesium chloride, 1.7 mM EDTA) to a concentration of 0.0005 μCi/μl. By addition of 50 μl (0.025 μCi) of the diluted substrate, the enzyme reaction is finally started. The test mixtures are incubated at room temperature for 60 min and the reaction is stopped by adding 25 μl of a suspension of 18 mg/ml yttrium scintillation proximity beads in water (phosphodiesterase beads for SPA assays, RPNQ 0150, Perkin Elmer). The microtitre plates are sealed with a film and left to stand at room temperature for 60 min. Subsequently, the plates are analysed for 30 s per well in a Microbeta scintillation counter (Perkin Elmer). IC50 values are determined using the graphic plot of the substance concentration against percentage PDE 5 inhibition.

In assay [2] the target is T2, recombinant guanylate cyclase reporter cell line (Rattus norvegicus, UniProt P19686+P20595).
T2 construct: expressed in transfected cells
T2 sequence (P19686 1-690): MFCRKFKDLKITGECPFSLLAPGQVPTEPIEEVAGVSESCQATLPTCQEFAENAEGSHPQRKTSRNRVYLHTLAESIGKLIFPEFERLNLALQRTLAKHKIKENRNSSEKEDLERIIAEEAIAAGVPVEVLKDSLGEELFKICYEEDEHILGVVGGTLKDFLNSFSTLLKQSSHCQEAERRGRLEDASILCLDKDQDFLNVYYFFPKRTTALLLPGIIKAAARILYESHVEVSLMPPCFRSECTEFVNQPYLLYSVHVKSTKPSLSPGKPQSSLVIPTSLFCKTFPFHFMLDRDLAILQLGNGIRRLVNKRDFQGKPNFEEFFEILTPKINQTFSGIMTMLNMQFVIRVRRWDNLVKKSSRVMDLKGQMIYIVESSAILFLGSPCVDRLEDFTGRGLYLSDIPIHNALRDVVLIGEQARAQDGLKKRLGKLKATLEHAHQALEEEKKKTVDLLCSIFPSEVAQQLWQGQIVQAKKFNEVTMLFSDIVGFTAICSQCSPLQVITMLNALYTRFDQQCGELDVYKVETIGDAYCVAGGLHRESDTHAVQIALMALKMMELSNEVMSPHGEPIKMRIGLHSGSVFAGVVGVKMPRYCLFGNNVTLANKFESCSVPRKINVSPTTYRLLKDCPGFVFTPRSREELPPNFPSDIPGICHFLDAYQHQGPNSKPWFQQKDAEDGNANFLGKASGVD
T2 sequence (P20595 1-619): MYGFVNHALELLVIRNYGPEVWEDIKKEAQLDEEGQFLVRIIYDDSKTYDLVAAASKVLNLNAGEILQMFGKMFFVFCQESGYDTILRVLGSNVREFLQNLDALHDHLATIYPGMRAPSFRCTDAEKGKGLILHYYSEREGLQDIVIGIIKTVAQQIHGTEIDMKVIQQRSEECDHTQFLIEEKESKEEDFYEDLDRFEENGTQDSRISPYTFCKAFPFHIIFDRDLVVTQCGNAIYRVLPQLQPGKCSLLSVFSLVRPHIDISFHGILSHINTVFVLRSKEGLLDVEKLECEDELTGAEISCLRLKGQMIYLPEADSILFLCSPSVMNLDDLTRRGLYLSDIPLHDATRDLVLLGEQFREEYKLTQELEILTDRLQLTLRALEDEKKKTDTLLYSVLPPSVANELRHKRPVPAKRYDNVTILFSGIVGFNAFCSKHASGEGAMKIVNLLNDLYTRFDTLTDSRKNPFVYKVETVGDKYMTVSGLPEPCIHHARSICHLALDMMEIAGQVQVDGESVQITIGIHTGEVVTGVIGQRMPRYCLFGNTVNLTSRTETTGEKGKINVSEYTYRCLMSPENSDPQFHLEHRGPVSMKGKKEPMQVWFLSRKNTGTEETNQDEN
The experiment in a line: Effect on a recombinant guanylate cyclase reporter cell line (B-2). The assay is classed as cell-based. The conditions noted are these: MEC = minimum effective concentration, in some cases mean values for individual determinations. How it is done:
B-2. Effect on a Recombinant Guanylate Cyclase Reporter Cell Line
The cellular activity of the compounds according to the invention is determined using a recombinant guanylate cyclase reporter cell line, as described in F. Wunder et al., Anal. Biochem. 339, 104-112 (2005).
Representative MEC values (MEC=minimum effective concentration) for the compounds of the invention are shown in Table 1 below (in some cases as mean values for individual determinations): […]

In assay [1], `Cc1nc2c(OCc3c(F)cccc3F)cccn2c1-c1nc(NCC2(O)CC2)c2c(n1)NC(=O)C2(C)C` [Example 17, 2-{8-[(2,6-difluorobenzyl)oxy]-2-methylimidazo[1,2-a]pyridin-3-yl}-4-{[(1-hydroxycyclopropyl)methyl]amino}-5,5-dimethyl-5,7-dihydro-6H-pyrrolo[2,3-d]pyrimidin-6-one] showed a pIC50 of 8.34. The MEC in assay [2] stood at 0.3 µM.
In the same order, the values of `Cc1nc2c(OCc3c(F)cccc3F)cccn2c1-c1nc2c(c(C(N)=O)n1)C(C)(C)C(=O)N2` [Example 50, 2-{8-[(2,6-Difluorobenzyl)oxy]-2-methylimidazo[1,2-a]pyridin-3-yl}-5,5-dimethyl-6-oxo-6,7-dihydro-5H-pyrrolo[2,3-d]pyrimidine-4-carboxamide hydrochloride] are 7.54 and 0.3 µM.
For `Cc1nc2c(OCc3c(F)ccc(F)c3F)cccn2c1-c1nc2c(c(OCC3CC3)n1)C(C)(C)C(=O)N2` [Example 76, 4-(Cyclopropylmethoxy)-5,5-dimethyl-2-{2-methyl-8-[(2,3,6-trifluorobenzyl)oxy]imidazo[1,2-a]pyridin-3-yl}-5,7-dihydro-6H-pyrrolo[2,3-d]pyrimidin-6-one], the pIC50 in assay [1] is 7.34.
For the molecule `Cc1nc2c(OCc3c(F)cccc3F)cccn2c1-c1nc(C#N)c2c(n1)NC(=O)C2(C)C` [Example 48, 2-{8-[(2,6-Difluorobenzyl)oxy]-2-methylimidazo[1,2-a]pyridin-3-yl}-5,5-dimethyl-6-oxo-6,7-dihydro-5H-pyrrolo[2,3-d]pyrimidine-4-carbonitrile], in assay [1], the pIC50 is 6.72. Further, in assay [2], the MEC stood at 1 µM.
`Cc1nc2c(OCc3c(F)cccc3F)cccn2c1-c1nc(NCC(C)(C)N)c2c(n1)NC(=O)C2(C)C(F)(F)F` (racemic) [Example 41, rac-4-[(2-Amino-2-methylpropyl)amino]-2-{8-[(2,6-difluorobenzyl)oxy]-2-methylimidazo[1,2-a]pyridin-3-yl}-5-methyl-5-(trifluoromethyl)-5,7-dihydro-6H-pyrrolo[2,3-d]pyrimidin-6-one] showed a pIC50 in assay [1] of 8.77. In assay [2], the MEC turned out to be 0.1 µM.
In the same order, the values of `Cc1nc2c(OCc3c(F)cccc3F)cccn2c1-c1nc(Cl)c2c(n1)NC(=O)C2(C)C` [Example 4, 4-Chloro-2-{8-[(2,6-difluorobenzyl)oxy]-2-methylimidazo[1,2-a]pyridin-3-yl}-5,5-dimethyl-5,7-dihydro-6H-pyrrolo[2,3-d]pyrimidin-6-one] are 6.96 and 3 µM.
Molecule `Cc1nc2c(OCc3c(F)ccc(F)c3F)cccn2c1-c1nc2c(c(C(N)=O)n1)C(C)(C)C(=O)N2` [Example 53, 5,5-Dimethyl-2-{2-methyl-8-[(2,3,6-trifluorobenzyl)oxy]imidazo[1,2-a]pyridin-3-yl}-6-oxo-6,7-dihydro-5H-pyrrolo[2,3-d]pyrimidine-4-carboxamide] had a negative-log IC50 (pIC50) in assay [1] of 8.37. In addition, in assay [2], the MEC came out at 0.3 µM.
Regarding `Cc1nc2c(OCc3c(F)ccc(F)c3F)cccn2c1-c1nc2c(c(C(=O)NCC(C)(N)C(F)(F)F)n1)C(C)(C)C(=O)N2` (racemic) [Example 57, rac-N-(2-amino-3,3,3-trifluoro-2-methylpropyl)-5,5-dimethyl-2-{2-methyl-8-[(2,3,6-trifluorobenzyl)oxy]imidazo[1,2-a]pyridin-3-yl}-6-oxo-6,7-dihydro-5H-pyrro1o[2,3-d]pyrimidine-4-carboxamide], the negative-log IC50 (pIC50) in assay [1] is 8.52.
Same read-out and setting: under `Cc1nc2c(OCc3c(F)ccc(F)c3F)cccn2c1-c1nc(C#CC2CC2)c2c(n1)NC(=O)C2(C)C` [Example 70, 4-(Cyclopropylethynyl)-5,5-dimethyl-2-{2-methyl-8-[(2,3,6-trifluorobenzyl)oxy]imidazo[1,2-a]pyridin-3-yl}-5,7-dihydro-6H-pyrrolo[2,3-d]pyrimidin-6-one] stands 6.37; under `Cc1nc2c(OCc3c(F)ccc(F)c3F)cccn2c1-c1nc(CCC2CC2)c2c(n1)NC(=O)C2(C)C` [Example 71, 4-(2-Cyclopropylethyl)-5,5-dimethyl-2-{2-methyl-8-[(2,3,6-trifluorobenzyl)oxy]imidazo[1,2-a]pyridin-3-yl}-5,7-dihydro-6H-pyrrolo[2,3-d]pyrimidin-6-one], 6.70; under `Cc1nc2c(OCc3c(F)ccc(F)c3F)cccn2c1-c1nc2c(c(OCCC(F)(F)F)n1)C(C)(C)C(=O)N2` [Example 77, 5,5-Dimethyl-2-{2-methyl-8-[(2,3,6-trifluorobenzyl)oxy]imidazo[1,2-a]pyridin-3-yl}-4-(3,3,3-trifluoropropoxy)-5,7-dihydro-6H-pyrrolo[2,3-d]pyrimidin-6-one], 6.85.
Take `CCCc1nc(-c2c(C)nc3c(OCc4c(F)ccc(F)c4F)cccn23)nc2c1C(C)(C)C(=O)N2` [Example 72, 5,5-Dimethyl-2-{2-methyl-8-[(2,3,6-trifluorobenzyl)oxy]imidazo[1,2-a]pyridin-3-yl}-4-propyl-5,7-dihydro-6H-pyrrolo[2,3-d]pyrimidin-6-one]: in assay [2], the MEC stood at 3 µM.
The same measure, in the same setting: the figure for `Cc1nc2c(OCc3c(F)cccc3F)cccn2c1-c1nc2c(c(OCCO)n1)C(C)(C)C(=O)N2` [Example 47, 2-{8-[(2,6-Difluorobenzyl)oxy]-2-methylimidazo[1,2-a]pyridin-3-yl}-4-(2-hydroxyethoxy)-5,5-dimethyl-5,7-dihydro-6H-pyrrolo[2,3-d]pyrimidin-6-one] is 0.3 µM.
With `Cc1nc2c(OCc3c(F)ccc(F)c3F)cccn2c1-c1nc(NCC(C)(C)N)c2c(n1)NC(=O)C2(C)C` [Example 31, 4-[(2-Amino-2-methylpropyl)amino]-5,5-dimethyl-2-{2-methyl-8-[(2,3,6-trifluorobenzyl)oxy]imidazo[1,2-a]pyridin-3-yl}-5,7-dihydro-6H-pyrrolo[2,3-d]pyrimidin-6-one formate], the pIC50 in assay [1] was 8.92.
The same measure, in the same setting: under `Cc1ncc(-c2nc(-c3c(C)nc4c(OCc5c(F)ccc(F)c5F)cccn34)nc3c2C(C)(C)C(=O)N3)s1` [Example 73, 5,5-Dimethyl-4-(2-methyl-1,3-thiazol-5-yl)-2-{2-methyl-8-[(2,3,6-trifluorobenzyl)oxy]imidazo[1,2-a]pyridin-3-yl}-5,7-dihydro-6H-pyrrolo[2,3-d]pyrimidin-6-one] stands 7.66.

A word on the pIC50: it is the negative decadic logarithm of the IC50, by convention in mol/L.
